In PubChem BioAssay AID330 (DTP/NCI, 2004):
Several values for one entry are separate records, joined by “and”; a condition that tells them apart may be missing. Identical values can stand only once. Inconclusive results and toxic doses are left out. The calls were made as follows: active = survival T/C of 150% or more; inactive = T/C below 125% in these data.

Test system: P388 leukemia ip, CD2F1 mice, survival T/C
Experiment: NCI In Vivo Anticancer Drug Screen. Data for tumor model P388 Leukemia (intraperitoneal) in CD2F1 (CDF1) mice
Details: endpoint: median survival time, higher = longer survival
Summary of the method: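 Mice carrying the transplanted tumor received test compound or vehicle. Survival was recorded in each group, and the value is the treated-group measurement divided by that of the vehicle-treated control group.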

[1] = dose: 50.0 mg/kg/injection, schedule: Q01DX009 (ip), vehicle: saline
[2] = dose: 100.0 mg/kg/injection, schedule: Q01DX009 (ip), vehicle: saline
[3] = dose: 200.0 mg/kg/injection, schedule: Q01DX009 (ip), vehicle: saline
[4] = dose: 60.0 mg/kg/injection, schedule: Q01DX005 (ip), vehicle: saline
[5] = dose: 120.0 mg/kg/injection, schedule: Q01DX005 (ip), vehicle: saline
[6] = dose: 240.0 mg/kg/injection, schedule: Q01DX005 (ip), vehicle: saline
[7] = dose: 50.0 mg/kg/injection, schedule: Q01DX009 (ip), vehicle: suspension in saline
[8] = dose: 100.0 mg/kg/injection, schedule: Q01DX009 (ip), vehicle: suspension in saline
[9] = dose: 60.0 mg/kg/injection, schedule: Q01DX005 (ip), vehicle: saline with Tween-80
[10] = dose: 120.0 mg/kg/injection, schedule: Q01DX005 (ip), vehicle: saline with Tween-80
[11] = dose: 240.0 mg/kg/injection, schedule: Q01DX005 (ip), vehicle: saline with Tween-80
[12] = dose: 100.0 mg/kg/injection, schedule: Q04DX003 (ip), vehicle: saline with Tween-80
[13] = dose: 200.0 mg/kg/injection, schedule: Q04DX003 (ip), vehicle: saline with Tween-80
[14] = dose: 400.0 mg/kg/injection, schedule: Q04DX003 (ip), vehicle: saline with Tween-80
[15] = dose: 50.0 mg/kg/injection, schedule: Q01DX009 (ip), vehicle: Klucel (hydroxypropylcellulose) (HPC)
[16] = dose: 50.0 mg/kg/injection, schedule: Q01DX009 (ip), vehicle: saline with Tween-80
[17] = dose: 100.0 mg/kg/injection, schedule: Q01DX009 (ip), vehicle: saline with Tween-80
[18] = dose: 200.0 mg/kg/injection, schedule: Q01DX009 (ip), vehicle: saline with Tween-80

Measured: T/C

O=C(O)CCc1cc(Br)no1
inactive: [1] 101 % of control | [2] 93 % of control | [3] 93 % of control

CC(=O)N1CCCN(C)/C1=N/[N+](=O)[O-]
inactive: [4] 103 % of control | [5] 100 % of control | [6] 108 % of control

O=C1c2ccccc2C(=O)c2c1ccc1c2[nH]c2cc(Cl)c(Cl)cc21
inactive: dose: 50.0 mg/kg/injection, schedule: Q01DX005 (ip), vehicle: Klucel + Tween-80 98 % of control | dose: 100.0 mg/kg/injection, schedule: Q01DX005 (ip), vehicle: Klucel + Tween-80 91 % of control | dose: 200.0 mg/kg/injection, schedule: Q01DX005 (ip), vehicle: Klucel + Tween-80 98 % of control

Fc1ccc(NC(=S)SCc2ccc(Cl)c(Cl)c2)cc1
inactive: [7] 90 % of control | [8] 90 % of control | dose: 200.0 mg/kg/injection, schedule: Q01DX009 (ip), vehicle: suspension in saline 102 % of control

O=c1cc(-c2ccccc2)[nH]c2[nH]n(-c3ccccc3)c(=O)c12
inactive: [9] 110 % of control | [10] 104 % of control | [11] 94 % of control

CCCc1nc(N)[nH]c(=O)c1CCCCc1ccccc1
inactive: [9] 90 % of control and 96 % of control | [10] 88 % of control and 103 % of control | [11] 96 % of control and 87 % of control

C(=C\c1csnn1)/c1ccc(/C=C/c2csnn2)cc1
inactive: [9] 100 % of control | [10] 100 % of control | [11] 100 % of control

BrCc1cccnc1
inactive: dose: 12.5 mg/kg/injection, schedule: Q01DX005 (ip), vehicle: saline 103 % of control | dose: 25.0 mg/kg/injection, schedule: Q01DX005 (ip), vehicle: saline 103 % of control | dose: 50.0 mg/kg/injection, schedule: Q01DX005 (ip), vehicle: saline 103 % of control and 110 % of control

COc1cccc2c1oc1c3ccc(O)cc3oc(=O)c21
inactive: dose: 6.2 mg/kg/injection, schedule: Q01DX007 (ip), vehicle: carboxymethylcellulose (CMC) 91 % of control

O=C(NC(=O)c1c(F)cccc1F)Nc1ccc(Cl)cn1
inactive: dose: 50.0 mg/kg/injection, schedule: Q04DX002 (ip), vehicle: saline with Tween-80 95 % of control | dose: 100.0 mg/kg/injection, schedule: Q04DX002 (ip), vehicle: saline with Tween-80 100 % of control | dose: 200.0 mg/kg/injection, schedule: Q04DX002 (ip), vehicle: saline with Tween-80 98 % of control

O=[N+]([O-])c1c(-c2ccccc2)csc1SSc1scc(-c2ccccc2)c1[N+](=O)[O-]
inactive: [12] 103 % of control | [13] 96 % of control | [14] 100 % of control

COC(c1cccc(C(OC)(C(F)(F)F)C(F)(F)F)c1)(C(F)(F)F)C(F)(F)F
inactive: dose: 25.0 mg/kg/injection, schedule: Q01DX005 (ip), vehicle: Klucel (hydroxypropylcellulose) (HPC) 101 % of control | dose: 50.0 mg/kg/injection, schedule: Q01DX005 (ip), vehicle: Klucel (hydroxypropylcellulose) (HPC) 96 % of control | dose: 100.0 mg/kg/injection, schedule: Q01DX005 (ip), vehicle: Klucel (hydroxypropylcellulose) (HPC) 103 % of control | dose: 200.0 mg/kg/injection, schedule: Q01DX005 (ip), vehicle: Klucel (hydroxypropylcellulose) (HPC) 90 % of control

Nc1cc(N)c([N+](=O)[O-])cc1[N+](=O)[O-]
inactive: [12] 91 % of control | [13] 100 % of control | [14] 87 % of control

CSc1c(C(=O)NC(C)C)cc(C(C)(C)C)cc1C(=O)NC(C)C
inactive: [15] 89 % of control | dose: 100.0 mg/kg/injection, schedule: Q01DX009 (ip), vehicle: Klucel (hydroxypropylcellulose) (HPC) 86 % of control | dose: 200.0 mg/kg/injection, schedule: Q01DX009 (ip), vehicle: Klucel (hydroxypropylcellulose) (HPC) 89 % of control

Cc1nc(NC(=O)C(C)(C)C)sc1[N+](=O)[O-]
inactive: [16] 101 % of control | [17] 92 % of control | [18] 94 % of control

CC(=O)N(C)c1ccc(Nc2cc(S(=O)(=O)O)c(N)c3c2C(=O)c2ccccc2C3=O)cc1
inactive: [4] 98 % of control | [5] 100 % of control | [6] 90 % of control

NOCc1cccc([N+](=O)[O-])c1
inactive: [1] 104 % of control | [2] 95 % of control | [3] 100 % of control

C1CNCCNCCNCCN1
inactive: dose: 12.5 mg/kg/injection, schedule: Q01DX009 (ip), vehicle: water 101 % of control | dose: 25.0 mg/kg/injection, schedule: Q01DX009 (ip), vehicle: water 96 % of control | dose: 50.0 mg/kg/injection, schedule: Q01DX009 (ip), vehicle: water 100 % of control | dose: 100.0 mg/kg/injection, schedule: Q01DX009 (ip), vehicle: water 101 % of control

CC1N=C(SCc2ccc(Cl)cc2)N2C(C)N=C(SCc3ccc(Cl)cc3)N12 (stereo not given)
inactive: [1] 112 % of control | [2] 110 % of control | [3] 104 % of control

COC1/C=C/OC2(C)Oc3c(C)c(O)c4c(O)c(c(/C=N/N5C(C)CN(Cc6ccc(NC(C)=O)cc6)CC5C)c(O)c4c3C2=O)NC(=O)C(C)=C/C=C/C(C)C(O)C(C)C(O)C(C)C(OC(C)=O)C1C (stereo not given)
inactive: dose: 12.5 mg/kg/injection, schedule: Q01DX009 (ip), vehicle: suspension in saline 110 % of control | dose: 25.0 mg/kg/injection, schedule: Q01DX009 (ip), vehicle: saline with Tween-80 119 % of control | dose: 25.0 mg/kg/injection, schedule: Q01DX009 (ip), vehicle: suspension in saline 110 % of control | [16] 99 % of control | [7] 108 % of control | [17] 99 % of control and 103 % of control | [8] 99 % of control | [18] 110 % of control and 119 % of control

CCC(c1ccccc1)c1cc2c(cc1OC(C)=O)OCO2 (stereo not given)
inactive: dose: 50.0 mg/kg/injection, schedule: Q01DX005 (ip), vehicle: saline with Tween-80 104 % of control | dose: 100.0 mg/kg/injection, schedule: Q01DX005 (ip), vehicle: saline with Tween-80 107 % of control | dose: 200.0 mg/kg/injection, schedule: Q01DX005 (ip), vehicle: saline with Tween-80 102 % of control

CCOC(=O)CC1CC2c3cc(OC)c(OC)cc3CCN2CC1CC (stereo not given)
inactive: dose: 12.5 mg/kg/injection, schedule: Q01DX009 (ip), vehicle: Klucel (hydroxypropylcellulose) (HPC) 108 % of control | dose: 25.0 mg/kg/injection, schedule: Q01DX009 (ip), vehicle: Klucel (hydroxypropylcellulose) (HPC) 114 % of control | [15] 100 % of control and 114 % of control
